Reference: patent US20170057958A1, “ENANTIOMERS OF THE N-(2-AMINO-5-FLUORO-2-METHYLPENTYL)-8-[(2,6-DIFLUOROBENZYL)OXY]-2-METHYLIMIDAZO[1,2-A]PYRIDINE-3-CARBOXAMIDE, AS WELL AS OF THE DI- AND TRIFLUORO DERIVATIVES FOR THE TREATMENT OF CARDIOVASCULAR DISEASES” (BAYER PHARMA AKTIENGESELLSCHAFT, priority 2014, published 2017)

Test system: recombinant guanylate cyclase reporter cell line
Assay: Effect on a recombinant guanylate cyclase reporter cell line
Assay type: cell-based
Conditions: in some cases mean values for individual determinations
Description: B-2. Effect on a Recombinant Guanylate Cyclase Reporter Cell Line
The cellular activity of the compounds according to the invention is determined using a recombinant guanylate cyclase reporter cell line, as described in F. Wunder et al., Anal. Biochem. 339, 104-112 (2005).
Representative MEC values (MEC=minimum effective concentration) for the compounds of the invention are shown in the table below (in some cases as mean values for individual determinations): […]

Compound: Cc1nc2c(OCc3c(F)ccc(F)c3F)cccn2c1C(=O)NCC(C)(N)CCC(F)(F)F (single isomer, unassigned; enantiomer b) [Example 7, ent-N-(2-amino-5,5,5-trifluoro-2-methylpentyl)-2-methyl-8-[(2,3,6-trifluorobenzyl)oxy]imidazo[1,2-a]pyridine-3-carboxamide (enantiomer B)]
- MEC (minimum effective concentration): 0.09 µM

Compound: Cc1nc2c(OCc3c(F)cccc3F)cccn2c1C(=O)NCC(C)(N)CCC(F)(F)F (single isomer, unassigned; enantiomer a) [Example 5, ent-N-(2-amino-5,5,5-trifluoro-2-methylpentyl)-8-[(2,6-difluorobenzyl)oxy]-2-methylimidazo[1,2-a]pyridine-3-carboxamide (enantiomer A)]
- MEC (minimum effective concentration): 0.1 µM

Compound: Cc1nc2c(OCc3c(F)cccc3F)cccn2c1C(=O)NCC(C)(N)CC(F)F (single isomer, unassigned; enantiomer a) [Example 3, ent-N-(2-amino-4,4-difluoro-2-methylbutyl)-8-[(2,6-difluorobenzyl)oxy]-2-methylimidazo[1,2-a]pyridine-3-carboxamide (enantiomer A)]
- MEC (minimum effective concentration): 0.3 µM

Compound: Cc1nc2c(OCc3c(F)cccc3F)cccn2c1C(=O)NCC(C)(N)CCCF (single isomer, unassigned; enantiomer b) [Example 2, ent-N-(2-amino-5-fluoro-2-methylpentyl)-8-[(2,6-difluorobenzyl)oxy]-2-methylimidazo[1,2-a]pyridine-3-carboxamide (enantiomer B)]
- MEC (minimum effective concentration): 0.3 µM

Compound: Cc1nc2c(OCc3c(F)cccc3F)cccn2c1C(=O)NCC(C)(N)CC(F)F (single isomer, unassigned; enantiomer b) [Example 4, ent-N-(2-amino-4,4-difluoro-2-methylbutyl)-8-[(2,6-difluorobenzyl)oxy]-2-methylimidazo[1,2-a]pyridine-3-carboxamide (enantiomer B)]
- MEC (minimum effective concentration): 0.3 µM

Compound: Cc1nc2c(OCc3c(F)cccc3F)cccn2c1C(=O)NCC(C)(N)CCCF (single isomer, unassigned; enantiomer a) [Example 1, ent-N-(2-amino-5-fluoro-2-methylpentyl)-8-[(2,6-difluorobenzyl)oxy]-2-methylimidazo[1,2-a]pyridine-3-carboxamide (enantiomer A)]
- MEC (minimum effective concentration): 0.3 µM

Compound: Cc1nc2c(OCc3c(F)cccc3F)cccn2c1C(=O)NCC(C)(N)CCC(F)(F)F (single isomer, unassigned; enantiomer b) [Example 6, ent-N-(2-amino-5,5,5-trifluoro-2-methylpentyl)-8-[(2,6-difluorobenzyl)oxy]-2-methylimidazo[1,2-a]pyridine-3-carboxamide (enantiomer B)]
- MEC (minimum effective concentration): 0.03 µM
